{"source": "paper PMC4000071", "about": "(Journal of Toxicologic Pathology, 2014)", "key": {"dogs": {"tested_on": "dogs", "settings": "cited from earlier work"}, "rats": {"tested_on": "rats", "settings": "cited from earlier work"}, "phospholipidosis (PLD)": {"tested_on": "phospholipidosis (PLD)", "test": "in vitro PLD screen", "assay_type": "cell-based", "settings": "read-out: EC50 (phospholipogenic, in vitro)"}}, "note": "Where two headings read alike, the source gives them in different places.", "data": [{"smiles": "CNCCC(Oc1ccc(C(F)(F)F)cc1)c1ccccc1", "note": "(stereo not drawn) [fluoxetine]", "values": [{"measurement": "neuronal degeneration or neurological findings", "setting": "dogs; after 1 year of dosing", "value": "no neuronal degeneration or neurological findings were observed"}, {"measurement": "PLD in nervous tissues", "setting": "rats", "value": "caused PLD in retinas"}, {"measurement": "PLD-like vacuolation in nerve cells", "setting": "rats", "value": "PLD-like vacuolation in nerve cells in the thalamus, cerebellum, spinal cord and ganglion"}]}, {"smiles": "CN(C)CCCC1(c2ccc(F)cc2)OCc2cc(C#N)ccc21", "note": "(stereo not drawn) [citalopram]", "values": [{"measurement": "PLD", "setting": "dogs", "value": "did not cause PLD"}, {"measurement": "PLD in nervous tissues", "setting": "rats", "value": "caused PLD in 1 sympathetic ganglion, none or very weak PLD in retinal and trigeminal ganglia, and hypothalamic neurosecretory perikarya"}]}, {"smiles": "C1CCC(C(CC2CCCCN2)C2CCCCC2)CC1", "note": "(stereo not drawn) [perhexiline]", "values": [{"measurement": "EC50", "setting": "phospholipidosis (PLD)", "value": "< 20", "unit": "µM"}]}, {"smiles": "CC[C@@H]([C@H](C)O)n1ncn(-c2ccc(N3CCN(c4ccc(OC[C@@H]5CO[C@@](Cn6cncn6)(c6ccc(F)cc6F)C5)cc4)CC3)cc2)c1=O", "note": "[posaconazole]", "values": [{"measurement": "PLD", "setting": "dogs; chronic administration", "value": "caused PLD in DRG and medulla oblongata neurons in the brain"}, {"measurement": "neuronal degeneration or necrosis", "setting": "dogs; chronic administration", "value": "no evidence of neuronal degeneration or necrosis"}]}, {"smiles": "CN(C)CCCN1c2ccccc2CCc2ccccc21", "note": "[imipramine]", "values": [{"measurement": "PLD in nervous tissues", "setting": "rats", "value": "caused PLD in retina and DRG"}]}, {"smiles": "CCCCc1oc2ccccc2c1C(=O)c1cc(I)c(OCCN(CC)CC)c(I)c1", "note": "[amiodarone]", "values": [{"measurement": "corneal microdeposits (incidence)", "setting": "dogs; after 6 weeks", "value": "1 of 6"}, {"measurement": "alteration in the retina or optic nerve", "setting": "dogs; after 11 weeks of dosing", "value": "did not cause any alteration in the retina or optic nerve"}]}, {"smiles": "CCN(CC)CCCC(C)Nc1ccnc2cc(Cl)ccc12", "note": "(stereo not drawn) [chloroquine]", "values": [{"measurement": "EC50", "setting": "phospholipidosis (PLD)", "value": "< 20", "unit": "µM"}]}]}
